From patent publication US20210395313A1, “PEPTIDE PAC1 ANTAGONISTS” (AMGEN INC., priority 2017, published 2021) come the findings set out here.

The target of assay [1] is T1, human PAC1 receptor (Homo sapiens, UniProt P41586).
T1 construct: SHSY-5Y (human neuroblastoma cell line) and RG-2 (rat glioma cell line) cells endogenously express human and rat PAC1 receptors, respectively; endogenous in cells; host or cells: SHSY-5Y human neuroblastoma cells
T1 sequence (P41586 21-468): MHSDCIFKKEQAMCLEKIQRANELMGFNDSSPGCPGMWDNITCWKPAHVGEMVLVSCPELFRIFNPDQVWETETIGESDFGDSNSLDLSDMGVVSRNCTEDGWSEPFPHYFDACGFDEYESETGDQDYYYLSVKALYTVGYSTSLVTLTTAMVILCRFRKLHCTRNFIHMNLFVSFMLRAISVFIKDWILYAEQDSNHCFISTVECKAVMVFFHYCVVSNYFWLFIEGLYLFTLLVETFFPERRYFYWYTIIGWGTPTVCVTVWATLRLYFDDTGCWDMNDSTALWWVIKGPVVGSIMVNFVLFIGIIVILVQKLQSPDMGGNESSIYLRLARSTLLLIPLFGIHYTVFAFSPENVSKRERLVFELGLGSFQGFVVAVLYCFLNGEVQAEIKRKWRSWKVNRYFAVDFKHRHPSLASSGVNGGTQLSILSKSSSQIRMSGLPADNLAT
As to the kind of experiment: LANCE Ultra cAMP accumulation antagonist assay in SHSY-5Y cells.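 Note: inhibition of cAMP accumulation evoked by PAC1 agonist at its EC80 in SHSY-5Y cells endogenously expressing receptor, 30 min preincubation then 15 min agonist, TR-FRET readout.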 It counts as cell-based. A general note: TR-FRET usually uses a lanthanide donor and a delayed reading to cut background.

Assay [2] concerns the target T2, rat PAC1 receptor (Rattus norvegicus, UniProt P32215).
T2 construct: SHSY-5Y (human neuroblastoma cell line) and RG-2 (rat glioma cell line) cells endogenously express human and rat PAC1 receptors, respectively; endogenous in cells; host or cells: RG-2 rat glioma cells
T2 sequence (P32215 20-523): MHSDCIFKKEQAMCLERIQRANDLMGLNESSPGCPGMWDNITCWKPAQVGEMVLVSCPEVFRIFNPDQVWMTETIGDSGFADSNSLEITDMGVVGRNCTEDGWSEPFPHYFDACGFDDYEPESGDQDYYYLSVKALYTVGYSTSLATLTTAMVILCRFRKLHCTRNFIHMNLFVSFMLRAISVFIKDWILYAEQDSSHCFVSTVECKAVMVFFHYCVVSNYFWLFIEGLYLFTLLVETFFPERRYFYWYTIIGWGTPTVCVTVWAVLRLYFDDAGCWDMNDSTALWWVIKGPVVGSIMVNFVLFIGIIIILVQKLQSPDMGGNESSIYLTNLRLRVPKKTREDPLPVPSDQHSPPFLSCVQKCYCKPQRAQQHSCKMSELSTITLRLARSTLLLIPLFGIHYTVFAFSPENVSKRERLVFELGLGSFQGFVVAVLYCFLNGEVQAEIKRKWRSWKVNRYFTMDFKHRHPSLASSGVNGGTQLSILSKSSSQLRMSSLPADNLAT
In words: LANCE Ultra cAMP accumulation antagonist assay in RG-2 cells.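 Note: RG-2 rat glioma cells endogenously expressing PAC1, test peptide preincubated 30 min, then PAC1 agonist added at its EC80 for 15 min, cAMP accumulation read by LANCE Ultra.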 It counts as cell-based.

Where a SMILES comes first, the peptide text is derived from it. Bridges are numbered along the chain shown (N, C = ends). Where no end group is shown, it is not given here. [ ]: non-standard residue; d: D form. SeMet = C[Se]CC[C@H](N)C(=O)O

What is called IC50 is the concentration that inhibits the measured activity by half. Higher therefore signals weaker potency. Consider `CSCC[C@@H]1NC(=O)[C@H](C)NC(=O)[C@H](C(C)C)NC(=O)[C@H](CCCCN)NC(=O)[C@H](CCCCN)NC(=O)[C@H](Cc2ccc(O)cc2)NC(=O)[C@H](CC(C)C)NC(=O)[C@@H](NC(=O)[C@H](C)NC(=O)[C@@H](NC(=O)[C@H](CC(C)C)NC(=O)CNC(=O)[C@H](CCCCN)NC(=O)[C@H](CCCNC(=N)N)NC(=O)[C@H](Cc2ccc(O)cc2)NC(=O)[C@H](CCC(N)=O)NC(=O)[C@@H]2CSSC[C@H](N)C(=O)N[C@@H](CC(=O)O)C(=O)N[C@@H](C)C(=O)N[C@@H]([C@@H](C)O)C(=O)N2)C(C)C)CSSC[C@@H](C(=O)N[C@@H](CCSC)C(=O)N[C@@H](CCCCN)C(=O)N[C@@H](CCC(N)=O)C(=O)N[C@@H](CCCCN)C(=O)N[C@@H](CCCCN)C(=O)N[C@@H](CCCCN)C(=O)N[C@@H](CCC(=O)O)C(=O)N[C@@H](Cc2c[nH]c3ccccc23)C(N)=O)NC(=O)[C@H](C)NC(=O)[C@H](CCCCN)NC(=O)[C@H](Cc2ccccc2)NC(=O)[C@H](C(C)C)NC(=O)[C@H](CO)NC(=O)[C@H](Cc2ccc(O)cc2)NC(=O)[C@H](CCCNC(=N)N)NC(=O)[C@H](CCCCN)NC(=O)[C@H](CCC(N)=O)NC1=O` [compound 427] (H-CDATCQYRKGLVACLYKKVAMQKRYSVFKACMKQKKKEW-NH2; disulfide 1-5, 14-31), for which the IC50 in assay [1] and in assay [2] was 1 to 100 nM in each case.

Turning to `CC[C@H](C)[C@H](NC(=O)[C@H](C)NC(=O)[C@H](CCCCN)NC(=O)[C@H](CCCNC(=N)N)NC(=O)[C@H](Cc1ccccc1)NC(=O)[C@H](CCC(N)=O)NC(=O)[C@@H]1CSSC[C@H](NC(=O)CN)C(=O)N[C@@H](CC(=O)O)C(=O)N[C@@H](C)C(=O)N[C@@H]([C@@H](C)O)C(=O)N1)C(=O)N[C@@H](CC(=O)O)C(=O)N[C@@H](CC(=O)O)C(=O)N[C@H]1CSSC[C@@H](C(=O)N[C@@H](CCSC)C(=O)N[C@@H](CCCCN)C(=O)N[C@@H](CCC(N)=O)C(=O)N[C@@H](CCCCN)C(=O)N[C@@H](CCCCN)C(=O)N[C@@H](CCCCN)C(=O)N[C@@H](CCC(=O)O)C(=O)N[C@@H](Cc2c[nH]c3ccccc23)C(=O)N[C@@H](CCCCN)C(=O)N[C@@H](C)C(=O)NCC(=O)N[C@@H](Cc2c[nH]cn2)C(=O)O)NC(=O)[C@H](C)NC(=O)[C@H](CCCCN)NC(=O)[C@H](Cc2ccccc2)NC(=O)[C@H](C(C)C)NC(=O)[C@H](CO)NC(=O)[C@H](CO)NC(=O)[C@H](Cc2c[nH]cn2)NC(=O)[C@H](Cc2c[nH]cn2)NC(=O)[C@H](C)NC(=O)[C@H](CCC(N)=O)NC(=O)[C@H](CCCNC(=N)N)NC(=O)[C@H](C(C)C)NC1=O` [compound 15] (H-GCDATCQFRKAIDDCVRQAHHSSVFKACMKQKKKEWKAGH-OH; disulfide 2-6, 15-28), the IC50 in assay [1] and in assay [2] was 0.01 to 1 nM in each case.

On to “CDATCQFRKAIDDCAKQAHHSNVPGSVFKACMKQKKKEWKAGH (disulfide 1-5, 14-31) [SEQ ID NO 152]”, for which the IC50 in assay [1] and in assay [2] was 0.01 to 1 nM in each case.

For the molecule “CDATCQFRKAIDDCVFWAAHSNVPGSVFKACMKQKKKEFKAG-NH2 (disulfide 1-5, 14-31) [compound 136]”, the IC50 in assay [1] and in assay [2] was 0.01 to 1 nM each time.

Take “CDATCQFRKAIDDCVWYSMHSNVPGSVFKACMKQKKKEFKAG-NH2 (disulfide 1-5, 14-31) [compound 133]”: the 50% inhibitory concentration (IC50) in assay [1] and in assay [2] was 0.01 to 1 nM each time.

With “CDATCQFRKAIDDCYYRSWHANVPGSVFKACMKQKKKEWKAGY (disulfide 1-5, 14-31) [compound 66]”, the IC50 in assay [1] and in assay [2] was 0.01 to 1 nM throughout.

`CC[C@H](C)[C@H](NC(=O)[C@H](C)NC(=O)[C@H](CCCCN)NC(=O)[C@H](CCCNC(=N)N)NC(=O)[C@H](Cc1ccccc1)NC(=O)[C@H](CCC(N)=O)NC(=O)[C@@H]1CSSC[C@H](N)C(=O)N[C@@H](CC(=O)O)C(=O)N[C@@H](C)C(=O)N[C@@H]([C@@H](C)O)C(=O)N1)C(=O)N[C@@H](CC(=O)O)C(=O)N[C@@H](CC(=O)O)C(=O)N[C@H]1CSSC[C@@H](C(=O)N[C@@H](CCSC)C(=O)N[C@@H](CCCCN)C(=O)N[C@@H](CCC(N)=O)C(=O)N[C@@H](CCCCN)C(=O)N[C@@H](CCCCN)C(=O)N[C@@H](CCCCN)C(=O)N[C@@H](CCC(=O)O)C(=O)N[C@@H](Cc2c[nH]c3ccccc23)C(=O)N[C@@H](CCCCN)C(=O)N[C@@H](C)C(=O)NCC(=O)N[C@@H](Cc2ccc(O)cc2)C(=O)O)NC(=O)[C@H](C)NC(=O)[C@H](CCCCN)NC(=O)[C@H](Cc2ccccc2)NC(=O)[C@H](C(C)C)NC(=O)[C@H](CO)NC(=O)[C@H](CO)NC(=O)[C@H](Cc2c[nH]cn2)NC(=O)[C@H](Cc2c[nH]cn2)NC(=O)[C@H](C)NC(=O)[C@H](CCC(N)=O)NC(=O)[C@H](CCCNC(=N)N)NC(=O)[C@H](C(C)C)NC1=O` [compound 3] (H-CDATCQFRKAIDDCVRQAHHSSVFKACMKQKKKEWKAGY-OH; disulfide 1-5, 14-27): the IC50 in assay [1] and in assay [2] was 0.01 to 1 nM each time.

As for “CDATCQFRKAIDDCVRQAHHSNVPGSVFKACMKQKKKEWKAG-NH2 (disulfide 1-5, 14-31) [compound 79]”, the IC50 in assay [1] was 0.01 to 1 nM; in assay [2] it was less than 0.01 nM.

Regarding “CDATCQFRKAIDDCARQAHHSNVPGSVFKACMKQKKKEFKAG-NH2 (disulfide 1-5, 14-31) [compound 17]”, the IC50 was 0.01 to 1 nM in assay [1] and less than 0.01 nM in assay [2].

Regarding “CDATCQFRKAIDDCVYSAWHSNVPGSVFKACMKQKKKEFKAG-NH2 (disulfide 1-5, 14-31) [compound 83]”, the IC50 in assay [1] and in assay [2] was 0.01 to 1 nM in each case.

As to “CDATCQFRKAIDDCARQAHHSNVPGSVFKAC[SeMet]KQKKKEWKAGH (disulfide 1-5, 14-31) [compound 7]”, the IC50 in assay [1] and in assay [2] was 0.01 to 1 nM throughout.

Turning to “CDATCQFRKAIDDCVWKAFHANVPGSVFKACMKQKKKEFKAG-NH2 (disulfide 1-5, 14-31) [compound 118]”, the IC50 in assay [1] and in assay [2] was 0.01 to 1 nM throughout.

As for “CDATCQFRKAIDDCWIVAWHANVPGSVFKACMKQKKKEFKAG-NH2 (disulfide 1-5, 14-31) [compound 129]”, the IC50 in assay [1] and in assay [2] was 0.01 to 1 nM in each case.

For the molecule “CDATCHFRKAIDDCQKQAHHSNVPGSVFKACMKQHKKRWRAG-NH2 (disulfide 1-5, 14-31) [compound 124]”, the IC50 in assay [1] and in assay [2] was 0.01 to 1 nM each time.

Turning to “CDATCQFRKAIDDCLWWSQHSNVPGSVFKACMKQKKKEFKAG-NH2 (disulfide 1-5, 14-31) [compound 117]”, the IC50 in assay [1] and in assay [2] was 0.01 to 1 nM each time.

On to “CDATCQFRKAIDDCVRQAHHSNVPGSVFKACMKQKKKEWKAGY (disulfide 1-5, 14-31) [SEQ ID NO 86]”, for which the IC50 in assay [1] and in assay [2] was 0.01 to 1 nM in each case.

In the case of “CDATCQFRKAIDDCYWQAIHANVPGSVWKACMKQKKKEFKAG-NH2 (disulfide 1-5, 14-31) [compound 138]”, the IC50 in assay [1] and in assay [2] was 0.01 to 1 nM each time.

With “CDATCQFRKAIDDCVYSAWHANVPGSVFKACMKQKKKEFKAG-NH2 (disulfide 1-5, 14-31) [compound 137]”, the IC50 in assay [1] and in assay [2] was 0.01 to 1 nM throughout.

“CDATCQFRKAIDDCARQAHHSNVPGSVFKACIKQKKKEWKAGH (disulfide 1-5, 14-31) [compound 9]”: the IC50 in assay [1] and in assay [2] was 0.01 to 1 nM each time.
